# Measurements from patent publication US10758534B2 (Vertex Pharmaceuticals Incorporated, priority 2014, dated 2020).
# Target: T1, F508del (Homo sapiens, UniProt P13569, DEL508-508)
# T1 construct: expressed in transfected cells
# Assay: Protocol 1: membrane potential optical assay (FLIPR III, voltage sensing dye), identification of potentiator compounds
# Format: cell-based
# Conditions: Table 3, compounds of Table 1
# Outline: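 NIH3T3 F508del cells, 27° C × 24 hrs; compound/DMSO pretreat → redistribution dye load → single forskolin addition with Cl⁻ gradient (gluconate-substituted bath, HEPES pH 7.4). FLIPR III membrane-potential fluorescence read.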
# T1 sequence (P13569 with tags, fused parts or gaps DEL508-508): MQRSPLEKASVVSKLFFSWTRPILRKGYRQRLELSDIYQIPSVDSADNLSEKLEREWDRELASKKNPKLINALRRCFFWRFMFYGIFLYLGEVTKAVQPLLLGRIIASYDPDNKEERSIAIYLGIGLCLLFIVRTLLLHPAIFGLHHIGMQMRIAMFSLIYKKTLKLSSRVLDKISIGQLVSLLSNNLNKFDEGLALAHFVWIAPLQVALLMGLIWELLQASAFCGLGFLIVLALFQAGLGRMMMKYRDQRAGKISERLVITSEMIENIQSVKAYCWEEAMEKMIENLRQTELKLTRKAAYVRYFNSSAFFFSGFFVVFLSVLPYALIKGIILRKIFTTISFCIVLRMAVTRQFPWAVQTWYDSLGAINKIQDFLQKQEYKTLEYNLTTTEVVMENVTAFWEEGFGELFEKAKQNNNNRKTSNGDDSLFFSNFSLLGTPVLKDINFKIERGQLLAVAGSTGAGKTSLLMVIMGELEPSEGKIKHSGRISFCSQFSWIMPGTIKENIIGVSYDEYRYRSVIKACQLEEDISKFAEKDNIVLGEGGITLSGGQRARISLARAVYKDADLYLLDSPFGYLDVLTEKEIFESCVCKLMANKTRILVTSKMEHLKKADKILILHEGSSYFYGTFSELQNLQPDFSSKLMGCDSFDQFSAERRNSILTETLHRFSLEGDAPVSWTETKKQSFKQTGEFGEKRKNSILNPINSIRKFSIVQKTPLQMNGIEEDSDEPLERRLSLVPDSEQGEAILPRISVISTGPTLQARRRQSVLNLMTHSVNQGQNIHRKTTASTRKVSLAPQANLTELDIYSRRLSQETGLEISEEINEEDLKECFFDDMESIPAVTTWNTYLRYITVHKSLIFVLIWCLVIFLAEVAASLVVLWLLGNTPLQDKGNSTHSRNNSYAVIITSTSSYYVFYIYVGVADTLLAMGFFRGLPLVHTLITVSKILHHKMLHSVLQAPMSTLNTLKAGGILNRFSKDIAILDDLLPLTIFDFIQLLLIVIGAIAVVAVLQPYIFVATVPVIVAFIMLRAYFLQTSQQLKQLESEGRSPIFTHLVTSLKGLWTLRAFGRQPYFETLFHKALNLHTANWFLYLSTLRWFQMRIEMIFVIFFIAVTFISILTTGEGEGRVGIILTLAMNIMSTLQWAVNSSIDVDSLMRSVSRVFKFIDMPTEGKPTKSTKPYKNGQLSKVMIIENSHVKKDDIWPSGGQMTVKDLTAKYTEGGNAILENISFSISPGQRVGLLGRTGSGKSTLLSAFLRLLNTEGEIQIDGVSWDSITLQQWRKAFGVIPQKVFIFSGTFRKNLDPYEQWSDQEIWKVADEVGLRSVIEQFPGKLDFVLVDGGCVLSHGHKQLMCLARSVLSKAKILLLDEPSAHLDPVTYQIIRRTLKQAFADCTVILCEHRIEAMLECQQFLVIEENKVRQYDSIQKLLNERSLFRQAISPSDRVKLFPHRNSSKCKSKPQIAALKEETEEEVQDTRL
row,SMILES,EC30
1,"CC(C)Oc1ccc(-c2ccc(C(=O)NS(=O)(=O)c3cccc(N)n3)c(N3CCCC(OCC4CC4)C3)n2)cn1 (stereo not drawn) [Compound 858, N-[(6-amino-2-pyridyl)sulfonyl]-2-[3-(cyclopropylmethoxy)-1-piperidyl]-6-(6-isopropoxy-3-pyridyl)pyridine-3-carboxamide]",++ (“++” means between 3 uM and 10 uM)
2,"CC(C)COc1cc(F)cc(-c2ccc(C(=O)NS(=O)(=O)c3cccc(N)n3)c(N3CCCC3c3ccccc3)n2)c1 (stereo not drawn) [Compound 859, N-[(6-amino-2-pyridyl)sulfonyl]-6-(3-fluoro-5-isobutoxy-phenyl)-2-(2-phenylpyrrolidin-1-yl)pyridine-3-carboxamide]",+++ (“+++” means <3 uM)
3,"COc1ncc(-c2ccc(C(=O)NS(=O)(=O)c3cccc(N)n3)c(N3CCC(C)CC3)n2)cc1C [Compound 863, N-[(6-amino-2-pyridyl)sulfonyl]-6-(6-methoxy-5-methyl-3-pyridyl)-2-(4-methyl-1-piperidyl)pyridine-3-carboxamide]",++ (“++” means between 3 uM and 10 uM)
4,"CC(C)Oc1ccc(-c2ccc(C(=O)NS(=O)(=O)c3cccc(N)n3)c(N3CCC[C@@H](c4ccccc4)C3)n2)cn1 [Compound 864, N-[(6-amino-2-pyridyl)sulfonyl]-6-(6-isopropoxy-3-pyridyl)-2-[(3S)-3-phenyl-1-piperidyl]pyridine-3-carboxamide]",+++ (“+++” means <3 uM)
5,"CC(C)COc1cc(F)cc(-c2ccc(C(=O)NS(=O)(=O)c3cccc(N)n3)c(OC(C)c3ccc(F)cc3)n2)c1 (stereo not drawn) [Compound 867, N-[(6-amino-2-pyridyl)sulfonyl]-6-(3-fluoro-5-isobutoxy-phenyl)-2-[1-(4-fluorophenyl)ethoxy]pyridine-3-carboxamide]",+++ (“+++” means <3 uM)
6,"Cc1cc(C)c(Oc2nc(-c3cc(F)cc(OCC(C)C)c3)ccc2C(=O)NS(=O)(=O)c2cccc(CN)n2)c(C)c1 [Compound 871, N-[[6-(aminomethyl)-2-pyridyl]sulfonyl]-6-(3-fluoro-5-isobutoxy-phenyl)-2-(2,4,6-trimethylphenoxy)pyridine-3-carboxamide]",+++ (“+++” means <3 uM)
7,"CC(C)COc1cc(F)cc(-c2ccc(C(=O)NS(=O)(=O)c3cccc(N)n3)c(OC3COC3)n2)c1 [Compound 872, N-[(6-amino-2-pyridyl)sulfonyl]-6-(3-fluoro-5-isobutoxy-phenyl)-2-(oxetan-3-yloxy)pyridine-3-carboxamide]",++ (“++” means between 3 uM and 10 uM)
8,"CC(C)COc1cc(F)cc(-c2ccc(C(=O)NS(=O)(=O)c3cccc(N)n3)c(OC(C)c3ccccc3)n2)c1 (stereo not drawn) [Compound 874, N-[(6-amino-2-pyridyl)sulfonyl]-6-(3-fluoro-5-isobutoxy-phenyl)-2-(1-phenylethoxy)pyridine-3-carboxamide]",+++ (“+++” means <3 uM)
9,"CC(C)COc1cc(F)cc(-c2ccc(C(=O)NS(=O)(=O)c3ccn[nH]3)c(N3CCCC(F)C3)n2)c1 (stereo not drawn) [Compound 878, 6-(3-fluoro-5-isobutoxy-phenyl)-2-(3-fluoro-1-piperidyl)-N-(1H-pyrazol-5-ylsulfonyl)pyridine-3-carboxamide]",++ (“++” means between 3 uM and 10 uM)
10,"Cc1ccc(-c2ccc(C(=O)NS(=O)(=O)c3cc[nH]n3)c(NCC3(C)CCOCC3)n2)cc1 [Compound 879, 2-[(4-methyltetrahydropyran-4-yl)methylamino]-6-(p-tolyl)-N-(1H-pyrazol-3-ylsulfonyl)pyridine-3-carboxamide]",+ (“+” means greater than 10 uM)
11,"CC(C)(C)c1ccc(C(=O)NS(=O)(=O)c2ccc(N)cc2)c(C2=CCCCC2)n1 [Compound 880, N-(4-aminophenyl)sulfonyl-6-tert-butyl-2-(cyclohexen-1-yl)pyridine-3-carboxamide]",++ (“++” means between 3 uM and 10 uM)
12,"CCCN(CC1CC1)c1nc(-c2cc(F)cc(OCC(C)C)c2)ccc1C(=O)NS(=O)(=O)c1cccc(N)n1 [Compound 881, N-[(6-amino-2-pyridyl)sulfonyl]-2-[cyclopropylmethyl(propyl)amino]-6-(3-fluoro-5-isobutoxy-phenyl)pyridine-3-carboxamide]",+++ (“+++” means <3 uM)
13,"CC(C)Oc1ccc(-c2ccc(C(=O)NS(=O)(=O)c3cccc(N)n3)c(N3CCC(OCC4CC4)CC3)n2)cn1 [Compound 884, N-[(6-amino-2-pyridyl)sulfonyl]-2-[4-(cyclopropylmethoxy)-1-piperidyl]-6-(6-isopropoxy-3-pyridyl)pyridine-3-carboxamide]",++ (“++” means between 3 uM and 10 uM)
14,"Cc1cc(C)c(CN2Cc3ccc(O)cc3C2(C)C(=O)NS(=O)(=O)c2cccc(N)n2)c(C)c1 (stereo not drawn) [Compound 885, N-[(6-amino-2-pyridyl)sulfonyl]-6-hydroxy-1-methyl-2-[(2,4,6-trimethylphenyl)methyl]isoindoline-1-carboxamide]",++ (“++” means between 3 uM and 10 uM)
15,"CC(C)COc1cc(F)cc(-c2ccc(C(=O)NS(=O)(=O)c3cccc(N)n3)c(N3CCCC(C)(C)C3)n2)c1 [Compound 887, N-[(6-amino-2-pyridyl)sulfonyl]-2-(3,3-dimethyl-1-piperidyl)-6-(3-fluoro-5-isobutoxy-phenyl)pyridine-3-carboxamide]",+++ (“+++” means <3 uM)

# Continued, values first:
row,EC30,SMILES
1,++ (“++” means between 3 uM and 10 uM),"CCOc1cc(-c2ccc(C(=O)NS(=O)(=O)c3cccc(N)n3)c(Oc3c(C)cc(C)cc3C)n2)ccc1OC [Compound 860, N-[(6-amino-2-pyridyl)sulfonyl]-6-(3-ethoxy-4-methoxy-phenyl)-2-(2,4,6-trimethylphenoxy)pyridine-3-carboxamide]"
2,++ (“++” means between 3 uM and 10 uM),"COc1ncc(-c2ccc(C(=O)NS(=O)(=O)c3cccnc3OC)c(-c3ccc(C)cc3)n2)cc1C [Compound 861, 6-(6-methoxy-5-methyl-3-pyridyl)-N-[(2-methoxy-3-pyridyl)sulfonyl]-2-(p-tolyl)pyridine-3-carboxamide]"
3,+++ (“+++” means <3 uM),"CCCCCc1ccc(C(=O)NS(=O)(=O)c2cccc(N)n2)c(Oc2c(C)cc(C)cc2C)n1 [Compound 862, N-[(6-amino-2-pyridyl)sulfonyl]-6-pentyl-2-(2,4,6-trimethylphenoxy)pyridine-3-carboxamide]"
4,+++ (“+++” means <3 uM),"Cc1cc(C)c(Oc2ncc(-c3ccccc3C(C)C)cc2C(=O)NS(=O)(=O)c2cccc(N)n2)c(C)c1 [Compound 865, N-[(6-amino-2-pyridyl)sulfonyl]-5-(2-isopropylphenyl)-2-(2,4,6-trimethylphenoxy)pyridine-3-carboxamide]"
5,+++ (“+++” means <3 uM),"Cc1cc(C)c(Oc2nc(-c3cccc(F)c3O)ccc2C(=O)NS(=O)(=O)c2cccc(N)n2)c(C)c1 [Compound 866, N-[(6-amino-2-pyridyl)sulfonyl]-6-(3-fluoro-2-hydroxy-phenyl)-2-(2,4,6-trimethylphenoxy)pyridine-3-carboxamide]"
6,+++ (“+++” means <3 uM),"Cc1cc(C)c(Oc2ncc(-c3ccccc3C(C)(C)C)cc2C(=O)NS(=O)(=O)c2cccc(N)n2)c(C)c1 [Compound 868, N-[(6-amino-2-pyridyl)sulfonyl]-5-(2-tert-butylphenyl)-2-(2,4,6-trimethylphenoxy)pyridine-3-carboxamide]"
7,+++ (“+++” means <3 uM),"Cc1cc(C)c(Oc2nc(-c3ccccc3)ccc2C(=O)NS(=O)(=O)c2cccc(N(C)C)n2)c(C)c1 [Compound 869, N-[[6-(dimethylamino)-2-pyridyl]sulfonyl]-6-phenyl-2-(2,4,6-trimethylphenoxy)pyridine-3-carboxamide]"
8,++ (“++” means between 3 uM and 10 uM),"Cc1cc(C)c(CN2C[C@H](c3ccccc3)C[C@H]2C(=O)NS(=O)(=O)c2cccc(N)n2)c(C)c1 [Compound 870, (2S,4S)—N-[(6-amino-2-pyridyl)sulfonyl]-4-phenyl-1-[(2,4,6-trimethylphenyl)methyl]pyrrolidine-2-carboxamide]"
9,+++ (“+++” means <3 uM),"Cc1cc(C)c(CN2Cc3ccccc3C2(C)C(=O)NS(=O)(=O)c2ccccc2)c(C)c1 (stereo not drawn) [Compound 873, N-(benzenesulfonyl)-1-methyl-2-[(2,4,6-trimethylphenyl)methyl]isoindoline-1-carboxamide]"
10,+++ (“+++” means <3 uM),"Cc1cc(C)c(Oc2nc(-c3ccc(C)cc3F)ccc2C(=O)NS(=O)(=O)c2cccc(N)n2)c(C)c1 [Compound 875, N-[(6-amino-2-pyridyl)sulfonyl]-6-(2-fluoro-4-methyl-phenyl)-2-(2,4,6-trimethylphenoxy)pyridine-3-carboxamide]"
11,+++ (“+++” means <3 uM),"COc1ncccc1S(=O)(=O)NC(=O)C1Cc2ccccc2CCN1Cc1c(C)cc(C)cc1C (stereo not drawn) [Compound 876, N-[(2-methoxy-3-pyridyl)sulfonyl]-3-[(2,4,6-trimethylphenyl)methyl]-1,2,4,5-tetrahydro-3-benzazepine-4-carboxamide]"
12,+++ (“+++” means <3 uM),"Cc1cc(C)c(Oc2nc(-c3ccccc3Cl)ccc2C(=O)NS(=O)(=O)c2ccc[nH]c2=O)c(C)c1 [Compound 877, 6-(2-chlorophenyl)-N-[(2-oxo-1H-pyridin-3-yl)sulfonyl]-2-(2,4,6-trimethylphenoxy)pyridine-3-carboxamide]"
13,+++ (“+++” means <3 uM),"Cc1cc(C)c(Oc2nc(C3=CCCCC3)ccc2C(=O)NS(=O)(=O)c2ccc[nH]c2=O)c(C)c1 [Compound 882, 6-(cyclohexen-1-yl)-N-[(2-oxo-1H-pyridin-3-yl)sulfonyl]-2-(2,4,6-trimethylphenoxy)pyridine-3-carboxamide]"
14,++ (“++” means between 3 uM and 10 uM),"Cc1cc(C)c(Oc2nc(C)ccc2C(=O)NS(=O)(=O)c2cccc(N3CCOCC3)n2)c(C)c1 [Compound 883, 6-methyl-N-[(6-morpholino-2-pyridyl)sulfonyl]-2-(2,4,6-trimethylphenoxy)pyridine-3-carboxamide]"
15,+++ (“+++” means <3 uM),"Cc1cc(C)c(Oc2nc(-c3cccc(C#N)c3)ccc2C(=O)NS(=O)(=O)c2cccc(N)n2)c(C)c1 [Compound 886, N-[(6-amino-2-pyridyl)sulfonyl]-6-(3-cyanophenyl)-2-(2,4,6-trimethylphenoxy)pyridine-3-carboxamide]"
